Tests used:
adjuvant arthritis (AA) = assay: Adjuvant arthritis (AA) after vaccination with recombinant proteins or peptides; format: in vivo, Lewis rats; conditions: single ip dose of 100 μg protein or peptide in IFA, AA induced seven days later; FIG. 4
Description: AA was induced as described (Quintana et al 2002), using 1 mg per rat of heat-killed Mt strain H37Ra (Difco). Each experimental and control group contained at least 8 rats. The day of AA induction was designated as day 0, and disease severity was assessed by direct observation of all 4 limbs in each animal. A relative score between 0 and 4 was assigned to each limb, based on the degree of joint inflammation, redness and deformity; thus the maximum possible score for an individual animal was 16 (Quintana et al 2002). The mean AA score (±SEM) is shown for each experimental group. Arthritis was also quantified by measuring hind limb diameter with a caliper. Measurements were taken on the day of the induction of AA and 26 days later (at the peak of AA); the results are presented as the mean±SEM of the difference between the two values for all the animals in each group. The person who scored the disease was blinded to the identity of the groups. Experiments were repeated at least 3 times and produced similar results.
Female Lewis rats were immunized ip with a single dose of 100 μg of peptide or recombinant protein emulsified in IFA.
We studied the immune effects of vaccination with recombinant C1 (rβC1) or C2 (rβC2), or with C1/2-derived peptides (Table 1). Female Lewis rats were immunized with a single ip dose of 100 μg of protein or peptide in IFA, and seven days later AA was induced.

[1] = system: draining lymph node cells (LNC); assay: T-cell proliferation of lymph node cells from vaccinated rats ([methyl-3H]-thymidine, stimulation index); format: cell-based, Lewis rats; conditions: for proliferative responses of LNC to PPD: LNC from peptide immunized rats; for T-cell responses of immunized rats to the immunizing peptide (immunogenicity): rats vaccinated with the peptide, FIG. 6B
Description: Unless otherwise stated, T-cell proliferation assays were performed at day 26 after the induction of AA, when the disease is at its peak, as previously described (Quintana et al 2002). Briefly, popliteal and inguinal lymph node cells (LNC), were cultured in quadruplicates in 200 μl round bottom microtiter wells (Costar Corp., Cambridge, USA) at 2×10^5 cells per well with or without antigen. The T-cell mitogen Concanavalin A (Con A) was used as a positive control for T-cell proliferation. Cultures were incubated for 96 hrs at 37° C. in a humidified atmosphere of 5% CO2. T-cell responses were detected by the incorporation of [methyl-3H]-thymidine (Amersham, Buckinghamshire, UK; 1 μCi/well), which was added to the wells for the last 18 hours. The stimulation index (SI) was computed as the ratio of the mean c.p.m. of antigen- or mitogen-containing wells to control wells cultured with medium alone. The results of T-cell proliferation experiments are shown as SI±SEM, T-cell responses with SI<2 were considered not significant.
To study the immune responses associated with the inhibition of AA by DNA vaccination with pβC1 or pβC2, we analyzed the T-cell responses of immunized rats 26 days after the induction of AA. We stimulated draining lymph node cells (LNC) in vitro with a collective of Mycobacterial antigens known to be associated with AA: HSP65, PPD and Mt176-190. The Mt176-190 peptide contains the 180-188 epitope of HSP65 described by van Eden et al which is recognized by HSP65-specific T-cell clones that can transfer AA (van Eden et al 1985). We also studied the immune response directed to recombinant βC1 and recombinant βC2, or to βC1/2 peptides predicted to bind the MHC class II molecule of the Lewis rat (see Table 1). Glutathione-S-transferase (GST) was included as a control antigen. […] 149 (MED12).
To study the effect of C1/2 vaccination on the immune response to C1/2 peptides and to the target antigens of AA, we vaccinated rats with rβC1 or rβC2, and then induced AA. At day 26, we removed the draining lymph nodes and measured the T-cell proliferative responses to peptides N12 (SEQ ID NO:147), MED12 (SEQ ID NO:149) or C2C (SEQ ID NO:152), or to the Mycobacterial antigens. […] Thus the C1/2 peptides are immunologically dominant.

IgM in sera = assay: Antigen microarray, serum IgM binding to TCR gamma constant region peptides; set-up: species or system human; conditions: serum 1:5
Excerpt: (§1) The antigenicity of peptides derived from human T-cell receptor gamma-chain constant region (accession no: AAB63314; SEQ ID NO:173) was essayed using antigen array technology, as detailed below.
(§2) Serum samples: Blood samples were obtained by random availability from 12 healthy adults and from 9 adults newly diagnosed with lung cancer, before treatment. All samples were collected with informed consent and approval of the Helsinki committee of the Sheba Medical Center, Tel Hashomer, Israel. The blood samples were allowed to clot at room temperature. After centrifugation, sera were collected and stored at −20° C.
(§3) Antigen microarray: Antigens diluted in PBS were placed in 384-well plates at a concentration of 1 μg/μl. We used a robotic MicroGrid arrayer with solid spotting pins of 0.2 mm in diameter (BioRobotics, Cambridge, U.K.) to spot the antigens onto ArrayIt SuperEpoxi microarray substrate slides (TeleChem, Sunnyvale, Calif.). the antigens were spotted in replicates of 4, and the microarrays were blocked for 1 h at 37° C. with 1% bovine serum albumin, and incubated under a cover-slip overnight at 4° C. with a 1:5 dilution of the test serum in blocking buffer. The quantitative range of signal intensity of binding to each antigen spot was 0.01-65,000, and this range of detection made it possible to record reliable data with little dilution of test samples. The arrays were then washed and incubated for 1 hour at 37° C. with a 1:500 dilution of detection antibodies. Two detection antibodies were used: a goat anti-human IgG Cy3-conjugated antibody and a goat anti-human IgM Cy5-conjugated antibody, purchased from Jackson ImmunoResearch, West Grove, Pa. The arrays were washed again, spin-dried, and scanned with a ScanArray 4000× scanner (GSI Luminomics, Billerica, Mass.). The results were recorded as TIFF files. Image acquisition by laser and quantification were done as described (Quintana et al., 2004).
(§4) Data preprocessing and background filtering: Antigen reactivity was defined by the mean intensity of the 4 replicates of binding to that antigen on the microarray. We identified positive antibodies in the following way: To establish the minimum level of significant antibody binding, we calculated the mean reactivity level of 32 spots incubated with phosphate buffered saline (PBS) in place of an antigen on each microarray slide. A signal was scored as positive when it expressed intensity greater than the upper limit of the PBS control, which was defined as the mean intensity of the PBS spots plus 2-times the standard deviation. Signal intensity above the PBS background was considered positive antibody binding.
(§5) The presence of IgG and IgM in sera obtained from patients with lung cancer and from healthy controls was determined using the antigen microarray, as detailed above. The results, presented in Table 13, represent the mean reactivity of 12 control subjects and 9 lung cancer subjects.

IgG in sera = assay: Antigen microarray, serum IgG binding to TCR gamma constant region peptides; set-up: species or system human; conditions: for Antigen Binding (Mean Intensity) IgG: serum 1:5
Excerpt: as §1, §2, §3, §4, §5

[2] = HEALTHY CONTROLS, mean of 12 subjects
[3] = LUNG CANCER, mean of 9 subjects

Row | Substance | severity of the disease (AA score) (adjuvant arthritis (AA)) | proliferative responses of LNC to PPD ([1]; FIG. 6A) | proliferative responses of LNC to mt180 and HSP65 ([1]; LNC from peptide-vaccinated rats, FIG. 6A) | T-cell responses of immunized rats to the immunizing peptide (immunogenicity) [1] | Antigen Binding (Mean Intensity) IgM (IgM in sera; [2]) | Antigen Binding (Mean Intensity) IgM (IgM in sera; [3]) | Antigen Binding (Mean Intensity) IgG (IgG in sera; [2]) | Antigen Binding (Mean Intensity) IgG (IgG in sera; [3]) | response of antibodies to the peptide (IgG in sera; antibodies from control subjects)
1 | vlvsalvlmamvkkkns (VLVSALVLMAMVKKKNS; listed as Rattus norvegicus) [C2C] | significantly decreased | increased proliferative responses | increased proliferative responses | significant T-cell responses | – | – | – | – | –
2 | KAGTYLCLLEKFFPDVIKI [SEQ ID NO:158] | – | – | – | – | 1753 | 2381 | 2233 | 2116 | responded
3 | vtppkvslfepseaeia (VTPPKVSLFEPSEAEIA; listed as Rattus norvegicus) [N12] | significantly decreased | increased proliferative responses | – | significant T-cell responses | – | – | – | – | –
4 | AYYMYLLLLLKSVVYFAIIT [SEQ ID NO:166] | – | – | – | – | 87 | 140 | 199 | 996 | –
5 | DQEIIFPPIKT [SEQ ID NO:161] | – | – | – | – | 86 | 160 | −147 | 846 | –
6 | KEHRCIVDTLLLQL [SEQ ID NO:165] | – | – | – | – | 97 | 103 | 95 | 1095 | –
7 | VVYFAIITCCLLRRTAFCCN [SEQ ID NO:167] | – | – | – | – | 548 | 512 | 376 | 1928 | –
8 | dspkpvtqnisaeawgr (DSPKPVTQNISAEAWGR; listed as Rattus norvegicus) [MED12] | significantly decreased | increased proliferative responses | – | significant T-cell responses | – | – | – | – | –
9 | KPTIFLPSSWLTVPE [SEQ ID NO:164] | – | – | – | – | −24 | 86 | −240 | −114 | –

— patent publication US9078843B2, “Immunogenic fragments of T-cell receptor constant domains and peptides derived therefrom” (priority 2005, dated 2015)
